Laboratory results published in US20110021517A1, “ANTITUMOR COMBINATION COMPRISING A MORPHOLINYL ANTHRACYCLINE DERIVATIVE AND DEMETHYLATING AGENTS” (NERVIANO MEDICAL SCIENCES S.R.L., priority 2008, published 2011).
pIC50: −log10 of the molar value. Where two headings read alike, the source gives them in different places.

What was measured:
L1210/MMRDX cells = test: Cytotoxic effect of nemorubicin on nemorubicin-resistant L1210/MMRDX cells with or without pre-treatment with 5-aza-2′-deoxycytidine; assay type: cell-based, murine; details: for pIC50: 24 h nemorubicin treatment, read-out: IC50 (dose inhibiting 50% cell growth)
Description: (§1) The effect of 5-aza-2′-deoxycytidine on the cytotoxic activity of morpholinyl anthracycline derivative (nemorubicin) was tested on a murine leukaemia cell line (L1210 cells). Cells were grown in RPMI 1640 medium supplemented with 10% foetal calf serum. Exponentially growing cells were seeded and exposed to 5-aza-2′-deoxycytidine immediately after seeding for 6 days, so as to allow efficient demethylation of the CpG islands. […] Six days following 5-aza-2′-deoxycytidine treatment, cells were diluted and treated with different concentrations of nemorubicin (50, 100, 200 and 500 nM) in comparison with cells not pretreated with the demethylating agent 5-aza-2′-deoxycytidine. In vitro drug sensitivity was determined by counting surviving cells by a Coulter Counter apparatus. The antiproliferative activity of the drug was evaluated after 24 h treatment and calculated from dose-response curves and expressed as dose inhibiting 50% cell growth (IC50). IC50 values were calculated from two-three independent experiments each consisting of at least three replicates. Combination indices (CI) were calculated using a computer program for multiple drug effect analysis based on the equation of Chou-Talalay (Adv Enzyme Regul 1984; 22:27-55) for mutually non-exclusive drugs. CI values <0.3-0.8 are indicative of synergism, 0.8-1.2 are indicative of additivity, […] are indicative of antagonism.
The effect of 5-aza-2′-deoxycytidine on the cytotoxic activity of nemorubicin was tested in comparison on L1210 cells and on the strain resistant to nemorubicin (L1210/MMRDX) (Geroni C. et al, Br J Cancer 9:315-19, 1994). Cells were grown in RPMI 1640 medium supplemented with 10% foetal calf serum. Exponentially growing cells were seeded and exposed to 5-aza-2′-deoxycytidine and nemorubicin as reported here above. In vitro drug sensitivity was determined by counting surviving cells by a Coulter Counter apparatus. The antiproliferative activity of the drug was evaluated after 24 h treatment and calculated from dose-response curves and expressed as IC50. IC50 values were calculated from two-three independent experiments each consisting of at least three replicates. Combination indices (CI) were calculated as described above.

L1210 cells = test: Cytotoxic effect of nemorubicin on L1210 cells with or without pre-treatment with 5-aza-2′-deoxycytidine (cell counting, Coulter Counter); assay type: cell-based, murine; details: for pIC50: 24 h nemorubicin treatment, read-out: IC50 (dose inhibiting 50% cell growth)
Description: as §1

For “(8S-cis, 2″S)-7,8,9,10-tetrahydro-6,8,11-trihydroxy-8-(hydroxyacetyl)-1-methoxy-10-{[2,3,6-trideoxy-3-(2-methoxy-4-morpholinyl)-α-L-lyxo-hexopyranosyl]oxy}-5,12-naphthacenedione [nemorubicin]”, the pIC50 (L1210/MMRDX cells; L1210/MMRDX cells pretreated with 5-aza-2′-deoxycytidine) was 6.85, the pIC50 (L1210/MMRDX cells; L1210/MMRDX cells untreated (no 5-aza-2′-deoxycytidine pretreatment)) was 6.32 and the “Combination effect based on CI value (in words)” value (L1210/MMRDX cells; combination of nemorubicin and 5-aza-2′-deoxycytidine, L1210/MMRDX cells) was “strong synergistic effect”. The “CI (combination index, Chou-Talalay)” value (L1210/MMRDX cells; nemorubicin combined with 5-aza-2′-deoxycytidine pretreatment, L1210/MMRDX cells) was 0.06, the pIC50 (L1210 cells; L1210 cells pretreated with 5-aza-2′-deoxycytidine for 6 days) was 6.89 and the pIC50 (L1210 cells; L1210 cells untreated (no 5-aza-2′-deoxycytidine pretreatment)) was 6.68. The “Combination effect based on CI value (in words)” value (L1210 cells; combination of nemorubicin and 5-aza-2′-deoxycytidine, L1210 cells) was “synergistic effect” and the “CI (combination index, Chou-Talalay)” value (L1210 cells; nemorubicin combined with 5-aza-2′-deoxycytidine pretreatment, L1210 cells) was 0.14.
